Assay results from ChEMBL document CHEMBL3045912, “Prediction of fungicidal activities of rice blast disease based on least-squares support vector machines and project pursuit regression” (2008).

Tested on: Pyricularia grisea
Experiment: Fungicidal activity against Magnaporthe grisea in rice seedlings assessed as area of infection on leaves treated 24 hr prior to spore inoculation measured 5 days after the fungal challenge
Format: functional

Structure (SMILES) | log(%)
CCc1ccc(NC(=O)Cc2cs/c(=N/c3ccc([N+](=O)[O-])cc3OC)n2C)cc1 | 1.81
CCCCc1ccc(NC(=O)Cc2cs/c(=N\c3cccc(F)c3)n2C)cc1 | 1
COc1ccc(NC(=O)Cc2cs/c(=N\c3ccc(Cl)c(C(F)(F)F)c3)n2C)cc1 | 2
CCc1ccc(NC(=O)Cc2cs/c(=N\c3ccc(C)cc3Cl)n2C)cc1 | 2
COc1ccccc1/N=c1\scc(CC(=O)Nc2ccc(OC(F)(F)F)cc2)n1C | 0.7
CCc1ccc(NC(=O)Cc2cs/c(=N/c3ccc(Cl)cc3)n2C)cc1 | 2
Cn1c(CC(=O)Nc2ccc(C(F)F)cc2)cs/c1=N\c1ccc(Br)cc1 | 1.4
CCc1ccc(NC(=O)Cc2cs/c(=N\c3ccc(Br)cc3F)n2C)cc1 | 2
Cn1c(CC(=O)Nc2ccc(Br)cc2)cs/c1=N\c1cccc(F)c1 | 1.9
CC(C)Oc1ccc(/N=c2/scc(CC(=O)Nc3ccc(C(F)F)cc3)n2C)cc1 | 1.7
COc1ccc(NC(=O)Cc2cs/c(=N\c3ccccc3C(C)C)n2C)cc1 | 1.9
Cn1c(CC(=O)Nc2ccc([N+](=O)[O-])cc2)cs/c1=N/c1ccc(C#N)cc1 | 0.7
CCCCOc1ccc(NC(=O)Cc2cs/c(=N\c3cccc(F)c3)n2C)cc1 | 1
Cn1c(CC(=O)Nc2ccc(OC(F)(F)F)cc2)cs/c1=N\c1cccc(Br)c1 | 1.7
Cn1c(CC(=O)Nc2ccc(OC(F)(F)F)cc2)cs/c1=N\c1ccc(F)cc1 | 0.9
Cn1c(CC(=O)Nc2ccc(Oc3ccccc3)cc2)cs/c1=N\c1cccc(Br)c1 | 0.9

Structure (SMILES) | log(%)
COc1ccc(NC(=O)Cc2cs/c(=N/c3ccc([N+](=O)[O-])cc3)n2C)cc1 | 2
COc1ccc(/N=c2\scc(CC(=O)Nc3ccc(C(F)F)cc3)n2C)cc1 | 1.4
CCc1ccc(NC(=O)Cc2cs/c(=N/c3ccc(CC#N)cc3)n2C)cc1 | 2
CCOc1ccc(NC(=O)Cc2cs/c(=N\c3ccc(F)cc3F)n2C)cc1 | 1.9
CCc1ccc(NC(=O)Cc2cs/c(=N\c3ccc(OC)cc3C)n2C)cc1 | 2
CCCCOc1ccc(NC(=O)Cc2cs/c(=N/c3ccc(C(F)(F)F)cc3)n2C)cc1 | 1
CCCCc1ccc(NC(=O)Cc2cs/c(=N\c3ccc(F)c(Cl)c3)n2C)cc1 | 1.3
Cn1c(CC(=O)Nc2ccc(Cl)cc2)cs/c1=N/c1ccc(-c2ccccc2)cc1 | 1.98
CCc1ccc(NC(=O)Cc2cs/c(=N/c3ccc(C(C)=O)cc3)n2C)cc1 | 2
COc1ccc(NC(=O)Cc2cs/c(=N\c3cccc(C(F)(F)F)c3)n2C)cc1 | 2
Cn1c(CC(=O)Nc2ccc([N+](=O)[O-])cc2)cs/c1=N/c1ccc(F)cc1 | 0.9
CCCCCCc1ccc(/N=c2/scc(CC(=O)Nc3ccc(CC)cc3)n2C)cc1 | 2
Cn1c(CC(=O)Nc2ccc(Oc3ccccc3)cc2)cs/c1=N/c1ccc(Oc2ccccc2)cc1 | 1.4
COc1ccc(/N=c2/scc(CC(=O)Nc3ccc(OC(F)(F)F)cc3)n2C)cc1 | 1.4
CC(C)c1ccc(NC(=O)Cc2cs/c(=N/c3ccc(C(F)(F)F)cc3)n2C)cc1 | 1.8
Cn1c(CC(=O)Nc2ccc(OC(F)(F)F)cc2)cs/c1=N\c1cccc(C(F)(F)F)c1 | 1.7
